Data from article PMC8087795 (2021).

How the values were obtained:
[1] = tested on: oligoribonucleotide 3 (biotinylated truncated pre-miR-21) (RNA, miRNA) CCGACUGAUGUUGACUGUUGAAUCUCAUGGCAACACCAGUCGG; assay: SPR steady state; details: 80 mM NaCl, 100 mM total Na+; 20 mM sodium cacodylate, pH 7.2; equivalent affinity for all sites; per site
[2] = tested on: oligoribonucleotide 4 (biotinylated FRET-pair truncated pre-miR-21) (RNA, miRNA, tC^O (cytosine analogue, donor) at 15; tCnitro (cytosine analogue, acceptor) at 24) CCGACUGAUGUUGACUGUUGAAUCUCAUGGCAACACCAGUCGG; assay: SPR steady state; details: 80 mM NaCl, 100 mM total Na+; 20 mM sodium cacodylate, pH 7.2; equivalent affinity for all sites; per site
[3] = tested on: oligoribonucleotide 2 (truncated pre-miR-21, 43 nt) (RNA, miRNA) CCGACUGAUGUUGACUGUUGAAUCUCAUGGCAACACCAGUCGG; assay: ITC; details: 80 mM NaCl, 100 mM total Na+; 20 mM sodium cacodylate, pH 7.2, 25 °C; 10 µM RNA; 1:1 fit
[4] = tested on: oligoribonucleotide 5 (hairpin loop FRET-labelled truncated pre-miR-21) (RNA, miRNA, tC^O (cytosine analogue, donor) at 24; tCnitro (cytosine analogue, acceptor) at 31) CCGACUGAUGUUGACUGUUGAAUCUCAUGGCAACACCAGUCGG; assay: interbase-FRET, change in FRET efficiency; details: 80 mM NaCl, 100 mM total Na+; 20 mM sodium cacodylate, pH 7.2; 1 µM RNA, 15 µM compound; single concentration, not a constant
[5] = tested on: oligoribonucleotide 7 (stem FRET-labelled truncated pre-miR-21) (RNA, miRNA, tC^O (cytosine analogue, donor) at 15; tCnitro (cytosine analogue, acceptor) at 37) CCGACUGAUGUUGACUGUUGAAUCUCAUGGCAACACCAGUCGG; assay: interbase-FRET, change in FRET efficiency; details: 80 mM NaCl, 100 mM total Na+; 20 mM sodium cacodylate, pH 7.2; 1 µM RNA, 15 µM compound; single concentration, not a constant

CN[C@@H]1[C@@H](O)[C@@H](O[C@@H]2[C@@H](O)[C@H](O[C@H]3O[C@H]([C@@H](C)O)[C@@H](O)[C@H](O)[C@H]3N)[C@@H](N)C[C@H]2N)OC[C@]1(C)O
Kd [1]: 101 ± 44 µM | Kd [2]: 94 ± 57 µM

NC[C@@H]1O[C@H](O[C@H]2[C@@H](O)[C@H](O[C@@H]3[C@@H](O)[C@H](N)C[C@H](N)[C@H]3O[C@H]3O[C@H](CN)[C@@H](O)[C@H](O)[C@H]3N)O[C@@H]2CO)[C@H](N)[C@@H](O)[C@@H]1O
Kd [3]: 5.2 ± 0.8 µM | Kd [1]: 3.9 ± 2.8 µM | Kd [2]: 2.7 ± 1.7 µM | ΔFRET15µM [4]: 0.042 | ΔFRET15µM [5]: 0.045

NC[C@H]1O[C@H](O[C@H]2[C@H](O)[C@@H](O[C@H]3O[C@H](CO)[C@@H](O)[C@H](N)[C@H]3O)[C@H](N)C[C@@H]2N)[C@H](O)[C@@H](O)[C@@H]1O
Kd [1]: 44 ± 18 µM | Kd [2]: 45 ± 23 µM

CN[C@@H]1[C@H](O[C@H]2[C@H](O[C@H]3[C@H](O)[C@@H](O)[C@H](N=C(N)N)[C@@H](O)[C@@H]3N=C(N)N)O[C@@H](C)[C@]2(O)C=O)O[C@@H](CO)[C@H](O)[C@H]1O
Kd [1]: 134 ± 76 µM | Kd [2]: 115 ± 80 µM | ΔFRET15µM [4]: 0.004 | ΔFRET15µM [5]: 0.008

NC[C@H]1O[C@H](O[C@H]2[C@H](O)[C@@H](O[C@H]3O[C@H](CO)[C@@H](O)[C@H](N)[C@H]3O)[C@H](N)C[C@@H]2N)[C@H](N)C[C@@H]1O
Kd [1]: 8 ± 4 µM | Kd [2]: 8 ± 5 µM | ΔFRET15µM [4]: 0.024 | ΔFRET15µM [5]: 0.049

CCN[C@@H]1C[C@H](N)[C@@H](O[C@H]2OC(CN)=CC[C@H]2N)[C@H](O)[C@H]1O[C@H]1OC[C@](C)(O)[C@H](NC)[C@H]1O
Kd [1]: 28 ± 35 µM | Kd [2]: 27 ± 34 µM

CN[C@@H]1[C@@H](O)[C@@H](O[C@@H]2[C@@H](O)[C@H](O[C@H]3OC(CN)=CC[C@H]3N)[C@@H](N)C[C@H]2N)OC[C@]1(C)O
Kd [1]: 4 ± 2 µM | Kd [2]: 4 ± 2 µM | ΔFRET15µM [4]: 0.023 | ΔFRET15µM [5]: 0.041

NC[C@H]1O[C@H](O[C@H]2[C@H](O[C@@H]3O[C@H](CO)[C@@H](O)[C@H]3O)[C@@H](O)[C@H](N)C[C@@H]2N)[C@H](N)[C@@H](O)[C@@H]1O
Kd [1]: 90 ± 73 µM | Kd [2]: 78 ± 67 µM

CN[C@@H]1[C@@H](O[C@H]2O[C@H](CO)[C@@H](N)[C@H](O)[C@H]2O)O[C@H]2C[C@@H](N)[C@@H](O[C@H]3[C@H](O)[C@@H](O)[C@H](N)C[C@@H]3N)O[C@@H]2[C@@H]1O
Kd [1]: 22 ± 12 µM | Kd [2]: 23 ± 12 µM

NCC[C@H](O)C(=O)N[C@@H]1C[C@H](N)[C@@H](O[C@H]2O[C@H](CN)[C@@H](O)[C@H](O)[C@H]2O)[C@H](O)[C@H]1O[C@H]1O[C@H](CO)[C@@H](O)[C@H](N)[C@H]1O
Kd [1]: 15 ± 4 µM | Kd [2]: 14 ± 3 µM
